Read-outs that look alike come from different tables or passages of the source.
How the values were obtained:
pa-HO [1] = target: T1, pa-HO (Pseudomonas aeruginosa, UniProt O69002); test: biochemical; type: binding; details: for Kd: read-out: Fluorescence pa-HO Kd
nm-HO [2] = target: T2, nm-HO (Neisseria meningitidis, UniProt Q9AH50); type: cell-based; parameters: key to E. coli assay biliverdin pigmentation: + biliverdin observed in cell pellet; − biliverdin not observed
nm-HO [3] = target: T2, nm-HO; test: biochemical; type: binding
P. aeruginosa = test: MIC50 for P. aeruginosa; type: cell-based, Pseudomonas aeruginosa; details: for MIC / minimum inhibition conc: Table 2; for MIC: read-out: minimum inhibition conc
pa-HO [4] = target: T1, pa-HO; type: binding; details: for NMR sat. transfer: Table 2, paHO; for NMR pa-HO: Table 3A
C. elegans = C. elegans assay (infected worms); type: in vivo; details: for C. elegans: Table 3A, infected worms
P. aeruginosa MPA01 = type: cell-based; details: 500 μM and above
[5] = Table 2, colour of cell pellet (white = no biliverdin, green = biliverdin) or toxicity to cells
[6] = Table 3B, nm-HO in E. coli expression system
[7] = Pseudomonas aeruginosa, Table 3A, read-out: MIC 50
[8] = Pseudomonas aeruginosa, Table 3B, P. aeruginosa, read-out: MIC 50
[9] = Table 4, target not named, values match nm-HO of Table 3A
Throughout, for NMR pa-HO: key: Shows binding by NMR method = +; Ambig = ambiguous.

T1 sequence (O69002 1-198): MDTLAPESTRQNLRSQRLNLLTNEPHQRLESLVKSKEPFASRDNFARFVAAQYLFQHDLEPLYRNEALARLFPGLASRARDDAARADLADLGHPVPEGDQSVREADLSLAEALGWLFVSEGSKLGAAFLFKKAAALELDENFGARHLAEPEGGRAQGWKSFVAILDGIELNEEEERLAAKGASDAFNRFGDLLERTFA
T2 sequence (Q9AH50 1-209): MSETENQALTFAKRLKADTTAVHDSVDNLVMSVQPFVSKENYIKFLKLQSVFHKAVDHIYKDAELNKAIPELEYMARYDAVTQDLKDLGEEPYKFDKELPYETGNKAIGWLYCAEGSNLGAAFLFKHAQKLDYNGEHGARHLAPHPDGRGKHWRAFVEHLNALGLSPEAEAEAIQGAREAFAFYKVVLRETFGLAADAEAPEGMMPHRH

Compound | fluorescence binding (pa-HO [1]) | E. coli assay (nm-HO [2]; [5]) | Biliverdin detection from E. coli Assay (nm-HO [2]; Table 3A, pellet colour) | Biliverdin detection from E. coli Assay (nm-HO [2]; [6]) | Kd (nm-HO [3]) [µM] | MIC50 (P. aeruginosa; [7]) [µg/mL] | MIC50 (P. aeruginosa; Table 3B, P. aeruginosa) [µg/mL] | E. coli assay (nm-HO [2]; Table 4) | MIC (P. aeruginosa; Pseudomonas aeruginosa) [µg/mL] | NMR sat. transfer (pa-HO [4]) | NMR pa-HO (pa-HO [4]) | other results
O=C1C=C(Nc2ccccc2O)c2ccccc2C1=O [Compound 114] | yes | toxic to cells | Toxic | Toxic | 28.8 |  |  |  |  |  |  | E. coli assay (nm-HO [2]; Table 6): Toxic
O=C(c1ccco1)C12CN3CN(CN(C3)C1)C2 [Compound 133] |  | Alias: CB-9 fluorescence binding: nd minimum inhibition conc: nd NMR sat. transfer: nd E. coli assay: green pellet | Green Pellet | Green Pellet |  | > 380 | >380 | Green Pellet |  |  |  | 
CN(C)c1ccc(/C=N/NC(=N)N)cc1 [Compound 1] | yes | white pellet | White pellet | White pellet |  | > 160 | >160 | White pellet | > 160 | yes, bind paHO | + | Kd (pa-HO [1]; Table 3A): 30.1 µM; E. coli assay biliverdin pigmentation (nm-HO [2]; E. coli cells expressing nm-HO, cell pellet): −; Kd (nm-HO [3]; Table 3A, read-out: Fluorescence nm-HO Kd): 22.9 µM; Kd (nm-HO [3]; Table 4, target not named, values match nm-HO of Table 3A, read-out: Kd): 22.9 µM; C. elegans assay (C. elegans; Table 2): yes
COc1ccc(C(=O)CCC(=O)O)c(C)c1 [Compound 59] | yes |  |  |  |  | > 1000 | >1000 |  | > 1000 | yes, bind paHO | + | 
O=C(NNC(=O)c1ccncc1)c1ccncc1 [Compound 24] | Alias: CD-18 (Compound 7 in manuscript) fluorescence binding: yes minimum inhibition conc: nd NMR sat. transfer: nd E. coli assay: green pellet | Alias: CD-18 (Compound 7 in manuscript) fluorescence binding: yes minimum inhibition conc: nd NMR sat. transfer: nd E. coli assay: green pellet | Green Pellet | Green Pellet |  |  |  |  |  |  |  | E. coli assay (nm-HO [2]; Table 5): Green Pellet
O=C(O)/C=C\C(=O)Nc1ccc(Nc2ccccc2)cc1 [chembridge010392] |  |  |  |  |  |  |  |  |  |  |  | inhibitory effect in the presence of Fe(III)-pyoverdine (P. aeruginosa MPA01): slight inhibitory effect
CCN(CC)c1ccc(/C=N/n2nnnc2N)c(O)c1 [Compound 149] | yes |  |  |  |  |  |  |  |  | do not bind paHO |  | 
CC(=O)Nc1ccc(/N=C/c2ccco2)cc1 [Compound 119] | yes |  |  |  |  |  |  |  |  | do not bind paHO |  | 
O=C(O)/C=C\C(=O)Nc1ccc(Nc2ccccc2)cc1 [Compound 75] | yes | white pellet | White pellet | White pellet | 15.6 | > 1000 | >1000 | White pellet | > 1000 |  |  | Kd (pa-HO [1]; Table 3A): 20.1 µM; C. elegans (C. elegans): no effect
O=C(Cc1ccc([N+](=O)O)cc1)N/N=C/c1ccc(O)cc1 [Compound 44] |  |  |  |  | 12.3 |  |  |  |  | Alias: CB-22 fluorescence binding: nd minimum inhibition conc: nd NMR sat. transfer: tested, ambiguous | Ambig | 
Cl.N=C(N/N=C\c1cccnc1)N/N=C\c1cccnc1 [Compound 148] | Alias: CB-31 Compound 1 in manuscript fluorescence binding: yes minimum inhibition conc: no antibacterial activity NMR sat. transfer: E. coli assay: white pellet | white pellet | White pellet | White pellet | 12.2 |  |  | White pellet |  |  |  | Kd (pa-HO [1]): 15.9 µM; MIC50 (P. aeruginosa; [8]): > 1000 µg/mL; minimum inhibition conc (P. aeruginosa): no antibacterial activity; MIC 50 (ug/ml) (P. aeruginosa; Table 3A): no antibact activity; Kd (nm-HO [3]; [9]): 12.2 µM
NC(=O)c1ccc(NC(=O)/C=C\C(=O)O)cc1Cl [Compound 8] |  | green pellet | Green Pellet | Green Pellet |  | > 750 | >750 | Green Pellet | > 750 |  |  | 
O=C(O)CN1C(=O)c2ccccc2C1=O [Compound 150] | yes |  |  |  |  |  |  |  |  | yes, bind paHO | + | MIC50 (P. aeruginosa; [8]): > 1000 µg/mL; minimum inhibition conc (P. aeruginosa): no antibacterial activity; MIC 50 (ug/ml) (P. aeruginosa; Table 3A): no antibact activity
O=C(Cc1ccc(Cl)cc1)N/N=C/c1c[nH]c2ccccc12 [Compound 126] | yes | white pellet | White pellet | White pellet | 14.1 |  |  | White pellet |  |  |  | Kd (pa-HO [1]; Table 3A): 15.8 µM; MIC50 (P. aeruginosa; [8]): > 1000 µg/mL; minimum inhibition conc (P. aeruginosa): no antibacterial activity; MIC 50 (ug/ml) (P. aeruginosa; Table 3A): no antibact activity; Kd (nm-HO [3]; [9]): 14.1 µM
NCc1ccc2c3c(cccc13)C(=O)N2 [Compound 87] |  |  |  |  |  | > 125 | >125 |  | > 125 | yes, bind paHO | + | C. elegans (C. elegans): Inconclusive

Reference: patent US20100081661A1, “HEME OXYGENASE INHIBITORS, SCREENING METHODS FOR HEME OXYGENASE INHIBITORS AND METHODS OF USE OF HEME OXYGENASE INHIBITORS FOR ANTIMICROBIAL THERAPY” (UNIVERSITY OF MARYLAND, BALTIMORE, priority 2006, published 2010)
